# Measurements published in patent publication US11492335B2, “Aryl or heteroaryl triazolone derivatives or salts thereof, or pharmaceutical compositions comprising the same” (YUHAN CORPORATION, priority 2018, dated 2022).
# Counter-ions that a name gives are not always drawn.
# How the values were obtained:
# Assay type in all cases: biochemical
# [1] = biological target: T1, recombinant human VAP-1 (Homo sapiens, UniProt Q16853); experiment: Activity on recombinant human VAP-1, Amplex Red HRP-coupled hydrogen peroxide assay, benzylamine substrate; details: recombinant human VAP-1, benzylamine substrate, 30 min preincubation at 37° C.; read-out: Inhibitory Activity (IC50, nM) human VAP-1
# T1 construct: purchased R&D systems
# T1 sequence (Q16853 1-763): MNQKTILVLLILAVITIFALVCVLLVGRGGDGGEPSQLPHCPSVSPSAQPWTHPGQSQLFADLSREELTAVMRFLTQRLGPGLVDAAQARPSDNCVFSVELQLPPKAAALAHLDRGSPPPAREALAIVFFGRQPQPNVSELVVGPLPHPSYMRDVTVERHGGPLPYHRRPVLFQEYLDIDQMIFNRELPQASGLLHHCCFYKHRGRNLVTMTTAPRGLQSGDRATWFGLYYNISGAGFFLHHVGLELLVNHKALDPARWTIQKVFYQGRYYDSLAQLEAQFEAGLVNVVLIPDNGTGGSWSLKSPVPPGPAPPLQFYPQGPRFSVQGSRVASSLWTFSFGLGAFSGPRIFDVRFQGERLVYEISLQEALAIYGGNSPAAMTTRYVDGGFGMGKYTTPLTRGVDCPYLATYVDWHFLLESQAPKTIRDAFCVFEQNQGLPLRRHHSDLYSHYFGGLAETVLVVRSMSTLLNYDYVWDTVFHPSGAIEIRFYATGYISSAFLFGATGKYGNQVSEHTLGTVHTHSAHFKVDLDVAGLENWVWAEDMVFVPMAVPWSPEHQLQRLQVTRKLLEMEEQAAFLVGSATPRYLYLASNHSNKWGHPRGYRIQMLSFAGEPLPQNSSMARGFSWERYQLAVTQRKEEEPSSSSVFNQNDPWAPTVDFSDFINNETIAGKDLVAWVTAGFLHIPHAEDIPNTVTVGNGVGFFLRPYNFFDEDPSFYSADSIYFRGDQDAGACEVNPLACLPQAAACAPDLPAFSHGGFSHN
# How it was run: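 Fluorescence of resorufin formed from H2O2 (ex 544 nm, em 590 nm) was tracked for 1-2 h after adding 1 mM benzylamine, 200 uM Amplex Red and 1 U/mL HRP to enzyme pretreated with compound for 30 min at 37 °C. IC50 values derive from four-variable logistic fits.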
# [2] = biological target: T2, recombinant human MAO-A (monoamine oxidase-A) (Homo sapiens, UniProt P21397); experiment: Activity on recombinant human MAO-A, Amplex Red method, 0.5 mM tyramine substrate; details: 0.5 mM tyramine, read-out: Inhibitory Activity (IC50, nM) MAO-A
# T2 construct: purchased Sigma-Aldrich
# T2 sequence (P21397 1-527): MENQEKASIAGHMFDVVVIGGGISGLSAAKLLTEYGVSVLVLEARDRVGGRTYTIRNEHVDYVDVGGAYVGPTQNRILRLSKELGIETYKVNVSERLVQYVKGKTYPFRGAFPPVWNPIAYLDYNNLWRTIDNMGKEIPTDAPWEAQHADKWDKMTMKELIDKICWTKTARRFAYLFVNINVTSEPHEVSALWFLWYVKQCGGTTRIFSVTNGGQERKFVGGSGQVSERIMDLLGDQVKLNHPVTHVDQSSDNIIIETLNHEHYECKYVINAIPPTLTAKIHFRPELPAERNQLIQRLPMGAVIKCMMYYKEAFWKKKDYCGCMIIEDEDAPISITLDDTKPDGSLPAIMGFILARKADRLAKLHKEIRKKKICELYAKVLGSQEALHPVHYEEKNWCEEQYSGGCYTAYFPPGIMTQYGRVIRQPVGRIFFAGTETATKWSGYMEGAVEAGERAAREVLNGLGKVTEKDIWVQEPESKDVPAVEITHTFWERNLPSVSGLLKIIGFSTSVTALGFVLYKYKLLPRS
# Experimental: (§1) The compounds according to the present technology were evaluated in terms of activity on recombinant human VAP-1 (R&D systems) by measuring the level of hydrogen peroxide in horseradish peroxidase (HRP)-coupled reaction using Amplex Red Hydrogen Peroxide Assay Kit (Molecular Probes, Invitrogen, USA). The experiment was carried out at room temperature using benzylamine as a substrate. In the HRP-coupled reaction, hydrogen peroxide oxidation of 10-acetyl-3,7-dihydroxyphenoxazine (Amplex Red reagent) produces resorufin, which is a highly fluorescent compound. Briefly, the test compound was dissolved in dimethyl sulfoxide (DMSO) at a concentration of 20 mM. The dose-response assessment was made by 1:3 serial dilution in DMSO, thereby creating an 8 point curve. The concentration of the upper part was controlled according to the efficacy of the compounds, followed by dilution with a reaction buffer solution to obtain a final DMSO concentration less than 1%. To each well of a 96 black well plate, human VAP-1 purified in 50 mM sodium phosphate buffer solution (pH7.4) was added. The test compounds dissolved in DMSO were incubated with the human VAP-1 enzymes at 37° C. for 30 minutes. After 30-minute incubation, each well is added with a reaction mixture containing 200 uM Amplex Red reagent prepared from 50 mM sodium phosphate buffer solution (pH 7.4), 1 mM benzylamine, and 1 U/mL HRP. Fluorescence intensity was measured at several time points during 1-2 hours using a microplate reader (Flexstation3, Molecular Devices) under the wavelength condition exciting at 544 nm and reading the emission at 590 nm. The inhibitory effect of the compounds was measured as a decrease (%) in the signal rate as compared to the control group without any inhibitor (only diluted DMSO). Data was fixed to a logistic model with four variables and IC50 value was calculated using GraphPad Prism program.
# (§2) In addition, the compounds according to the present technology were evaluated in terms of activity on a recombinant human MAO-A (monoamine oxidase-A, Sigma-Aldrich) and a recombinant human MAO-B (monoamine oxidase-B, Sigma-Aldrich) by using as substrates, 0.5 mM tyramine and 1 mM benzylamine, respectively, with a method similar to the activity evaluation method for recombinant human VAP-1. The compounds according to the present technology were also evaluated in terms of activity on a recombinant human DAO (diamine oxidase, R&D systems) by using as a substrate 1 mM putrescine with a method similar to the activity evaluation method for recombinant human VAP-1.
# [3] = biological target: T3, recombinant human MAO-B (monoamine oxidase-B) (Homo sapiens, UniProt P27338); experiment: Activity on recombinant human MAO-B, Amplex Red method, 1 mM benzylamine substrate; details: 1 mM benzylamine, read-out: Inhibitory Activity (IC50, nM) MAO-B
# T3 construct: purchased Sigma-Aldrich
# T3 sequence (P27338 1-520): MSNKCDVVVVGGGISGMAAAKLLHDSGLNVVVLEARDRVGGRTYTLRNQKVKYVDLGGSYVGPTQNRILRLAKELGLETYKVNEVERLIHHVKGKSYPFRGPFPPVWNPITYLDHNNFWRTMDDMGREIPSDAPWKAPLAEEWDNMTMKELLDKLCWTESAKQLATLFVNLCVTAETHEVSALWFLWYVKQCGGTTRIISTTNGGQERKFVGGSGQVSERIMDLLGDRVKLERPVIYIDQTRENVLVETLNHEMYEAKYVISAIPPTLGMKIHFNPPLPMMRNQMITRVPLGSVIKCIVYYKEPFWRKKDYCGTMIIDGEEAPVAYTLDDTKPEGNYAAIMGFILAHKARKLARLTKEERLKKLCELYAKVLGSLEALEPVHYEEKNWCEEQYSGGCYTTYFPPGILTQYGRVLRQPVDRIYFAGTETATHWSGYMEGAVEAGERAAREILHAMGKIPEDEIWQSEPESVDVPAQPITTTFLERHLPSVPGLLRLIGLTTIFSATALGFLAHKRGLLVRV
# Experimental: as §1, §2
# [4] = biological target: T4, recombinant human DAO (diamine oxidase) (Homo sapiens, UniProt P19801); experiment: Activity on recombinant human DAO, Amplex Red method, 1 mM putrescine substrate; details: recombinant human DAO, 1 mM putrescine; * = between 10 and 100 nM, ** = between 300 and 1000 nM; read-out: Inhibitory Activity (IC50, nM) DAO
# T4 construct: purchased R&D systems
# T4 sequence (P19801 20-751): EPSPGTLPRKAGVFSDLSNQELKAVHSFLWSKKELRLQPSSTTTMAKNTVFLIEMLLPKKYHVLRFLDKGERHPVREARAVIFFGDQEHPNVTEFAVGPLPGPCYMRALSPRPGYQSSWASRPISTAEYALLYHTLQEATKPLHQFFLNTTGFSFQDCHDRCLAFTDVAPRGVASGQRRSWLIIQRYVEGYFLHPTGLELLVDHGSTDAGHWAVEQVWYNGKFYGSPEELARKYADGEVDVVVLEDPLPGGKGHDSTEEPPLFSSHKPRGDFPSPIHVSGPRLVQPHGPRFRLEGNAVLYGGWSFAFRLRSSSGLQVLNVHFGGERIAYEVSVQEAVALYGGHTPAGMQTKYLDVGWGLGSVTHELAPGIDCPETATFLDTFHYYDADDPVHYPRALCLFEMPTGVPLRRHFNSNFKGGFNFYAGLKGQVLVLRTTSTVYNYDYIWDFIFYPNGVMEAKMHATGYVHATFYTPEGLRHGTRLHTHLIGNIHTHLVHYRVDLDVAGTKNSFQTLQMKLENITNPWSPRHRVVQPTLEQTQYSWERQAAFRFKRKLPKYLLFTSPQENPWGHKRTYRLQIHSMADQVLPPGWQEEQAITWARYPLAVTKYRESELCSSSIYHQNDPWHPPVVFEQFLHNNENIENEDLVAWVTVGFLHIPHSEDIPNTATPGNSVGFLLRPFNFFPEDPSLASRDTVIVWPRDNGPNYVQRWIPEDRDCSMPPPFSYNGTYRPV
# How it was run: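 Inhibition of recombinant human DAO (diamine oxidase, R&D systems) was assessed with the Amplex Red Hydrogen Peroxide Assay Kit. Hydrogen peroxide produced from 1 mM putrescine was detected through an HRP-coupled reaction that converts Amplex Red into fluorescent resorufin, read at 544 nm excitation and 590 nm emission. IC50 values came from four-parameter logistic fits in GraphPad Prism.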
SMILES,IC50 [1],IC50 [2],IC50 [3],IC50 [4]
"NC/C(=C\F)Cn1ncn(-c2ccc(Br)cc2F)c1=O [Example 12, 2-[(2E)-2-(aminomethyl)-3-fluoroprop-2-en-1-yl]-4-(4-bromo-2-fluorophenyl)-2,4-dihydro-3H-1,2,4-triazol-3-one hydrochloride]",0.75 nM,1500 nM,281 nM,38 nM
"NC/C(=C\F)Cn1ncn(-c2ccc(Br)c(F)c2)c1=O [Example 14, 2-[(2E)-2-(aminomethyl)-3-fluoroprop-2-en-1-yl]-4-(4-bromo-3-fluorophenyl)-2,4-dihydro-3H-1,2,4-triazol-3-one hydrochloride]",0.96 nM,5200 nM,35 nM,38 nM
"Cc1cc(-n2cnn(C/C(=C\F)CN)c2=O)ccc1Br [Example 15, 2-[(2Z)-2-(aminomethyl)-3-fluoroprop-2-en-1-yl]-4-(4-bromo-3-methylphenyl)-2,4-dihydro-3H-1,2,4-triazol-3-one]",2.2 nM,710 nM,9.8 nM,85 nM
"COc1cc(-n2cnn(C/C(=C\F)CN)c2=O)ccc1Br [Example 17, 2-[(2Z)-2-(aminomethyl)-3-fluoroprop-2-en-1-yl]-4-(4-bromo-3-methoxyphenyl)-2,4-dihydro-3H-1,2,4-triazol-3-one]",2.7 nM,> 100000 nM,406 nM,31 nM
"COc1cc(-n2cnn(C/C(=C/F)CN)c2=O)ccc1Br [Example 18, 2-[(2E)-2-(aminomethyl)-3-fluoroprop-2-en-1-yl]-4-(4-bromo-3-methoxyphenyl)-2,4-dihydro-3H-1,2,4-triazol-3-one hydrochloride]",1.4 nM,> 100000 nM,58 nM,21 nM
"NC/C(=C\F)Cn1ncn(-c2cc(F)c(Br)c(F)c2)c1=O [Example 20, 2-[(2E)-2-(aminomethyl)-3-fluoroprop-2-en-1-yl]-4-(4-bromo-3,5-difluorophenyl)-2,4-dihydro-3H-1,2,4-triazol-3-one hydrochloride]",2.2 nM,> 100000 nM,> 10000 nM,15 nM

# The remaining compounds from weak to strong by IC50 [1], led by results:
IC50 [1],IC50 [2],IC50 [3],IC50 [4],SMILES
7.3 nM,400 nM,25 nM,333 nM,"NC/C(=C/F)Cn1ncn(-c2c(F)cc(Br)cc2F)c1=O [Example 21, 2-[(2Z)-2-(aminomethyl)-3-fluoroprop-2-en-1-yl]-4-(4-bromo-2,6-difluorophenyl)-2,4-dihydro-3H-1,2,4-triazol-3-one hydrochloride]"
2.3 nM,155 nM,3.3 nM,67 nM,"NC/C(=C/F)Cn1ncn(-c2ccc(Br)c(F)c2)c1=O [Example 13, 2-[(2Z)-2-(aminomethyl)-3-fluoroprop-2-en-1-yl]-4-(4-bromo-3-fluorophenyl)-2,4-dihydro-3H-1,2,4-triazol-3-one]"
1.5 nM,200 nM,12 nM,209 nM,"NC/C(=C/F)Cn1ncn(-c2ccc(Br)cc2F)c1=O [Example 11, 2-[(2Z)-2-(aminomethyl)-3-fluoroprop-2-en-1-yl]-4-(4-bromo-2-fluorophenyl)-2,4-dihydro-3H-1,2,4-triazol-3-one hydrochloride]"
0.74 nM,32000 nM,141 nM,12 nM,"Cc1cc(-n2cnn(C/C(=C/F)CN)c2=O)ccc1Br [Example 16, 2-[(2E)-2-(aminomethyl)-3-fluoroprop-2-en-1-yl]-4-(4-bromo-3-methylphenyl)-2,4-dihydro-3H-1,2,4-triazol-3-one hydrochloride]"
